ChEMBL document CHEMBL1201862, “PubChem BioAssay data set” (2004)
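Cultured in 96-well plates, cells were exposed to test compound for 48 hours across five concentrations. GI50 = concentration required for 50% inhibition of growth.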 Calls of active or inactive are those of the source. Cut-off read from the data, not from the text of the source: active = GI50 up to about 1.1 µM and inactive = higher.

Key:
Experiment in all cases: NCI tumour cell line growth inhibition, 48 h
786-0 = system: 786-0
A498 = system: A498
A549 = system: A549
ACHN = system: ACHN
BT-549 = system: BT-549
CAKI-1 = system: CAKI-1
CCRF-CEM = system: CCRF-CEM
COLO 205 = system: COLO 205
DU-145 = system: DU-145
EKVX = system: EKVX
HCC 2998 = system: HCC 2998
HCT-116 = system: HCT-116
HCT-15 = system: HCT-15
HL-60 = system: HL-60
HOP-62 = system: HOP-62
HOP-92 = system: HOP-92
HT-29 = system: HT-29
Hs-578T = system: Hs-578T
IGROV-1 = system: IGROV-1
K562 = system: K562
KM12 = system: KM12
LOX IMVI = system: LOX IMVI
M14 = system: M14
MCF7 = system: MCF7
MDA-MB-231 = system: MDA-MB-231
MDA-MB-435 = system: MDA-MB-435
MDA-N = system: MDA-N
MOLT-4 = system: MOLT-4
Malme-3M = system: Malme-3M
NCI-H226 = system: NCI-H226
NCI-H23 = system: NCI-H23
NCI-H460 = system: NCI-H460
NCI-H522 = system: NCI-H522
NCI/ADR-RES = system: NCI/ADR-RES
OVCAR-3 = system: OVCAR-3
OVCAR-4 = system: OVCAR-4
OVCAR-5 = system: OVCAR-5
OVCAR-8 = system: OVCAR-8
PC-3 = system: PC-3
RPMI-8226 = system: RPMI-8226
RXF 393 = system: RXF 393
SF-268 = system: SF-268
SF-295 = system: SF-295
SF-539 = system: SF-539
SK-MEL-28 = system: SK-MEL-28
SK-MEL-2 = system: SK-MEL-2
SK-MEL-5 = system: SK-MEL-5
SK-OV-3 = system: SK-OV-3
SN12C = system: SN12C
SNB-19 = system: SNB-19
SNB-75 = system: SNB-75
SR = system: SR
SW-620 = system: SW-620
T47D = system: T47D
TK-10 = system: TK-10
U-251 = system: U-251
UACC-257 = system: UACC-257
UACC-62 = system: UACC-62
UO-31 = system: UO-31

Measured: GI50

C/C(=N\Nc1nc2ccccc2s1)c1cc(C)ncn1
active: 786-0 0.507 µM | ACHN 0.199 µM | CAKI-1 0.145 µM | CCRF-CEM 0.0929 µM | COLO 205 0.0543 µM | EKVX 0.269 µM | HCT-116 0.1 µM | HL-60 0.0776 µM | HT-29 0.0637 µM | Hs-578T 0.738 µM | IGROV-1 0.824 µM | K562 0.129 µM | KM12 0.767 µM | LOX IMVI 0.499 µM | M14 0.474 µM | MCF7 0.341 µM | MDA-MB-231 0.286 µM | MOLT-4 0.104 µM | Malme-3M 0.372 µM | NCI-H226 0.427 µM | NCI-H23 0.741 µM | NCI-H460 0.426 µM | NCI-H522 0.07 µM | NCI/ADR-RES 0.371 µM | OVCAR-3 0.408 µM | OVCAR-8 0.29 µM | PC-3 0.612 µM | RPMI-8226 0.337 µM | SF-268 0.318 µM | SK-MEL-5 0.459 µM | SN12C 0.392 µM | SR 0.259 µM | SW-620 0.352 µM | T47D 0.206 µM | U-251 1 µM | UACC-257 0.29 µM | UACC-62 0.979 µM | UO-31 0.389 µM
0.394 µM: HCT-15
inactive: A498 9.93 µM | A549 2.25 µM | BT-549 6.79 µM | DU-145 2.19 µM | HCC 2998 1.72 µM | HOP-62 1.34 µM | HOP-92 1.54 µM | MDA-MB-435 2.81 µM | MDA-N 3.98 µM | OVCAR-4 1.7 µM | OVCAR-5 1.27 µM | RXF 393 3.02 µM | SF-295 2.73 µM | SF-539 1.38 µM | SK-MEL-28 3.09 µM | SK-MEL-2 3.78 µM | SK-OV-3 1.28 µM | SNB-19 6.68 µM | SNB-75 1.34 µM | TK-10 15.3 µM

COc1ccc(/N=C/C=C/Nc2ccc(OC)cc2)cc1
inactive: 786-0 4 µM | A498 14 µM | A549 12.1 µM | ACHN 15.6 µM | BT-549 4.18 µM | CAKI-1 3.78 µM | CCRF-CEM 6.28 µM | COLO 205 3.99 µM | DU-145 18.7 µM | EKVX 15.7 µM | HCC 2998 8.45 µM | HCT-116 3.66 µM | HL-60 2.87 µM | HOP-62 5.78 µM | HOP-92 15.3 µM | HT-29 2.88 µM | Hs-578T 17.5 µM | IGROV-1 11.6 µM | K562 8.13 µM | KM12 4.54 µM | LOX IMVI 2.44 µM | M14 11 µM | MCF7 4.75 µM | MDA-MB-231 2.38 µM | MDA-MB-435 9.27 µM | MDA-N 4.78 µM | MOLT-4 4.51 µM | Malme-3M 11.4 µM | NCI-H226 17.5 µM | NCI-H23 19.6 µM | NCI-H460 13.3 µM | NCI-H522 5.42 µM | NCI/ADR-RES 6.95 µM | OVCAR-3 1.84 µM | OVCAR-4 5.24 µM | OVCAR-5 15.5 µM | OVCAR-8 3.3 µM | PC-3 12 µM | RPMI-8226 8.81 µM | RXF 393 7.67 µM | SF-268 7.43 µM | SF-295 7.98 µM | SF-539 9.64 µM | SK-MEL-28 15.2 µM | SK-MEL-2 16.4 µM | SK-MEL-5 4.66 µM | SK-OV-3 19.7 µM | SN12C 3.9 µM | SNB-19 3.43 µM | SNB-75 16.9 µM | SR 3.85 µM | SW-620 2.69 µM | T47D 15 µM | TK-10 11.8 µM | U-251 5.35 µM | UACC-257 7.35 µM | UACC-62 13.7 µM | UO-31 5.64 µM
4.65 µM: HCT-15

CCCCCCCCCCCCCCCCNc1nc(=O)n(C2CC(O)C(CO)O2)cc1F (stereo not given)
0.875 µM: HCT-15
active: A549 0.94 µM | ACHN 0.259 µM | HCC 2998 0.071 µM | SF-539 0.284 µM
inactive: 786-0 2.88 µM | A498 > 10 µM | BT-549 16.3 µM | CAKI-1 2.1 µM | CCRF-CEM > 10 µM | COLO 205 12.7 µM | DU-145 10 µM | EKVX 14.6 µM | HCT-116 8.26 µM | HL-60 5.47 µM | HOP-62 7.52 µM | HOP-92 10.3 µM | HT-29 9.84 µM | Hs-578T 17.4 µM | IGROV-1 11.6 µM | KM12 13.8 µM | LOX IMVI 10.5 µM | M14 8.57 µM | MCF7 1.33 µM | MDA-MB-231 21.7 µM | MDA-MB-435 12.2 µM | MDA-N 16 µM | MOLT-4 4.72 µM | Malme-3M 10.8 µM | NCI-H226 1.28 µM | NCI-H23 4.85 µM | NCI-H460 10.7 µM | NCI-H522 5.28 µM | NCI/ADR-RES 2.86 µM | OVCAR-3 13.9 µM | OVCAR-4 15.7 µM | OVCAR-5 18.2 µM | OVCAR-8 1.82 µM | PC-3 3.93 µM | RPMI-8226 15.8 µM | RXF 393 13.5 µM | SF-268 2.93 µM | SF-295 16.5 µM | SK-MEL-28 12.7 µM | SK-MEL-2 19.6 µM | SK-MEL-5 11.6 µM | SK-OV-3 13.5 µM | SN12C 12.5 µM | SNB-19 13.7 µM | SNB-75 5.06 µM | SR 4.01 µM | SW-620 13 µM | T47D 11.7 µM | TK-10 11.9 µM | U-251 11.7 µM | UACC-257 16.7 µM | UACC-62 10.7 µM | UO-31 1.4 µM

Oc1cc(O)c2c(c1)OC(c1ccc(O)c(O)c1)C(OC1(c3cc(O)c(O)c(O)c3)Oc3cc(O)cc(O)c3C(O)C1O)C2 (stereo not given)
36 µM: HCT-15
inactive: 786-0 25.7 µM | A498 > 34.1 µM | A549 27.7 µM | ACHN 38.4 µM | BT-549 26.8 µM | CAKI-1 29.8 µM | CCRF-CEM 15.1 µM | COLO 205 31.8 µM | DU-145 > 49 µM | EKVX 15.6 µM | HCC 2998 62.8 µM | HCT-116 24.6 µM | HL-60 21.7 µM | HOP-62 24 µM | HOP-92 29.6 µM | HT-29 18.1 µM | Hs-578T 36.6 µM | IGROV-1 30.7 µM | K562 21.1 µM | KM12 26.1 µM | LOX IMVI 18.3 µM | M14 24.7 µM | MCF7 19.6 µM | MDA-MB-231 19.7 µM | MDA-MB-435 15.7 µM | MDA-N 20.3 µM | MOLT-4 23.5 µM | Malme-3M 87.9 µM | NCI-H226 21.1 µM | NCI-H23 20.9 µM | NCI-H460 18.4 µM | NCI-H522 21.4 µM | NCI/ADR-RES 30.2 µM | OVCAR-3 35.6 µM | OVCAR-4 26.4 µM | OVCAR-5 21.8 µM | OVCAR-8 26 µM | PC-3 49.7 µM | RPMI-8226 22.1 µM | RXF 393 73.5 µM | SF-268 25.9 µM | SF-295 33.1 µM | SF-539 32.1 µM | SK-MEL-28 > 40.6 µM | SK-MEL-2 24.5 µM | SK-MEL-5 18.3 µM | SK-OV-3 > 65.5 µM | SN12C 20.8 µM | SNB-19 55.1 µM | SNB-75 26.4 µM | SR 29.2 µM | SW-620 24.8 µM | T47D 37.6 µM | TK-10 > 100 µM | U-251 20.8 µM | UACC-257 37.4 µM | UACC-62 37.6 µM | UO-31 18 µM
